Measurements reported in patent publication US20250332173A1, “COMPOUNDS AND METHODS FOR MODULATING NUCLEIC ACID SPLICING” (REMIX THERAPEUTICS INC., priority 2021, published 2025).

system: MYB; assay: HiBiT protein abundance assay, MYB HiBiT K562 cell line; assay type: cell-based, human; details: HiBiT K562 cell line, 24 hours, top dose 10 μM; read-out: Effect on protein abundance, MYB (IC50 category)
How it was run: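 K562 knock-in lines with endogenous HiBiT-tagged target, 10,000 cells/well in IMDM + FBS, treated 24 h at 37° C with 10-point 3-fold dilutions (top 10 μM final; DMSO ≤0.25%). Lytic Nano-Glo HiBiT luminescence normalized to untagged K562 baseline and DMSO controls; IC50 = concentration giving 50% abundance via four-parameter fit.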

| SMILES | IC50 [nM] |
| --- | --- |
| Cc1cn2cc(-c3ccc4c(c3)CCN(C3CCNCC3)C4=O)cc(F)c2n1 [Compound 247] | 100 to 1000 |
| Cc1cn2nc(-c3cc(F)c4c(=O)n(C5CCNCC5)cnc4c3)cc(C)c2n1 [Compound 243] | < 100 |
| Cc1nc2c(F)cc(-c3ccc4c(=O)n(C5CCNCC5)ncc4c3)cc2s1 [Compound 253] | 1000 to 10000 |
| Cc1cn2nc(-c3ccc4c(=O)n(C5CCN(C)CC5)ncc4c3)cc(C)c2n1 [Compound 265] | 100 to 1000 |
| Cc1cn2cc(-c3ccc4c(=O)n(C5CCNCC5)cnc4c3)c(C)cc2n1 [Compound 244] | > 10000 |
| Cc1cn2cc(-c3ccc4c(=O)n(C5CCNCC5)ncc4c3)c(C)cc2n1 [Compound 254] | 1000 to 10000 |
| Cc1cn2cc(-c3ccc4c(=O)n(C5CCNCC5)ncc4c3)cc(C(F)(F)F)c2n1 [Compound 262] | 100 to 1000 |
| Cc1cc(-c2ccc3c(=O)n(C4CCNCC4)ncc3c2)cc2cn(C)nc12 [Compound 251] | 100 to 1000 |
| Cc1cn2cc(-c3ccc4c(c3)CCN(C3CCNCC3)C4=O)cc(C(F)(F)F)c2n1 [Compound 252] | 1000 to 10000 |
| Cc1cn2cc(-c3ccc4c(=O)n(C5CCNCC5)ncc4c3)cc(F)c2n1 [Compound 248] | < 100 |
| O=c1c2ccc(-c3cn[nH]c3)cc2cnn1C1CCNCC1 [Compound 261] | > 10000 |
| Cc1cn2nc(-c3ccc4c(=O)n(C5CCNCC5)ncc4c3)nc2c(C)n1 [Compound 259] | 100 to 1000 |
| Cn1cc2ccc(-c3ccc4c(=O)n(C5CCNCC5)ncc4c3)cc2n1 [Compound 263] | > 10000 |
| Cc1cn2cc(-c3ccc4c(=O)n(C5CCNCC5)ncc4c3)ncc2n1 [Compound 255] | > 10000 |
| Cc1cn2cc(-c3ccc4c(=O)n(C5CCNCC5)ncc4c3)cc(Cl)c2n1 [Compound 256] | 100 to 1000 |
| Cc1cn2nc(-c3ccc4c(=O)n(C5CCNC5)ncc4c3)cc(C)c2n1 (centres unmarked) [Compound 264] | 1000 to 10000 |
| Cc1cn2nc(-c3ccc4c(=O)n([C@@H]5CCNC6(CC6)C5)cnc4c3)cc(C)c2n1 [Compound 444] | 100 to 1000 |
| Cn1cc2cc(-c3ccc4c(=O)n(C5CCNCC5)ncc4c3)cc(F)c2n1 [Compound 249] | 1000 to 10000 |
| Cc1cn2nc(-c3ccc4c(=O)n(C5CCNCC5)ncc4c3)cc2c(C)n1 [Compound 260] | 100 to 1000 |
| Cc1nc2c(F)cc(-c3ccc4c(=O)n(C5CCNCC5)cnc4c3)cc2o1 [Compound 245] | 100 to 1000 |
| Cc1cn2cc(-c3ccc4c(=O)n(C5CCN(C)CC5)cnc4c3)c(C)cc2n1 [Compound 246] | 1000 to 10000 |
| Cc1cn2cc(-c3ccc4c(=O)n(C5CCNCC5)ncc4c3)cc(C)c2n1 [Compound 257] | 100 to 1000 |
| Cc1nc2c(F)cc(-c3ccc4c(=O)n(C5CCNCC5)ncc4c3)cc2o1 [Compound 250] | < 100 |
